According to patent US20250270256A1, “NOVEL ANTIMICROBIAL PEPTIDE WITH EXCELLENT MICROBIAL CYTOPLASM ELUTION EFFECT” (CELLICON LAB INC., priority 2021, published 2025):
“Also recorded” adds a separate entry of the source. Read-outs that look alike come from different tables or passages of the source. Where no end group is shown, it is not given here.

Key:
[1] = tested on: Human keratinocytes (HaCaT); conditions: 24 hours, comparison between peptides, FIGS. 1B-4B
Procedure: Therefore, cytotoxicity to human keratinocytes was also evaluated by treating human keratinocytes with antimicrobial peptides and measuring cell viability.
Human keratinocytes (HaCaT) were purchased from ATCC (American Type Culture Collection, USA) and cultured in Dulbecco's modified Eagle's medium (DMEM, Gibco, USA) containing 10% fetal bovine serum (FBS, Gibco, USA) and 1% antibiotic-antimycotic (Gibco, USA) at 37° C. in a 5% CO2 incubator.
MTT assay was performed to determine the viability of HaCaT cells against antimicrobial peptides. HaCaT cells were cultured in a 96-well plate at 2×10^5 cells/mL for 24 hours, then treated with samples at various concentrations, and cultured again for 24 hours. The culture medium was removed, and the cells were treated with MTT solution (0.5 mg/mL in PBS). After 4 hours, the MTT solution was removed, DMSO was added to each well, and formazan was dissolved at 37° C. for 30 minutes. Absorbance was measured at 570 nm using a microplate reader (Molecular Devices Spectra MAX, Sunnyvale, CA, USA).

Escherichia coli [2] = format: cell-based; conditions: for antimicrobial activity against Escherichia coli (in words): comparison between peptides, FIGS. 1A-4A
Procedure: Specifically, in order to evaluate the antimicrobial activity, the antimicrobial activity against Escherichia coli was measured, and Escherichia coli was treated with antimicrobial peptides, and cell viability was measured and compared.
In order to test the antimicrobial efficacy of antimicrobial peptides, Escherichia coli was cultured in LB medium for about 8 hours, and then the cultured bacteria were dispensed into a 96-well plate. Antimicrobial peptide samples at various concentrations were added into the respective wells, and incubation was performed at 37° C. for 24 hours.
In order to evaluate the antimicrobial activity against Escherichia coli, MIC (minimum inhibitory concentration) and IC50 were additionally measured in addition to the experiments conducted in Examples 1-1 and 1-2.
Specifically, an antimicrobial efficacy experiment was used as the experimental method, and the MIC and IC50 values for the experimental results were calculated by evaluating the minimum inhibitory concentration and the 50% inhibitory concentration with the absorbance and OD value, respectively.

Candida albicans [3] = format: cell-based
Procedure: (§1) In order to evaluate whether the antimicrobial peptides of the present disclosure have antimicrobial activity against bacteria other than Escherichia coli, antimicrobial effects against Escherichia coli, Staphylococcus aureus, Pseudomonas aeruginosa, and Candida albicans, which were strains announced by the Ministry of Food and Drug Safety, were examined.
(§2) Specifically, Escherichia coli, Staphylococcus aureus, and Pseudomonas aeruginosa were cultured using LB medium, and Candida albicans was cultured using YM medium, and then the cultured bacteria were dispensed into a 96-well plate. Antimicrobial peptide samples at various concentrations were added into the respective wells, and incubation was performed at 37° C. for 24 hours.

Staphylococcus aureus [4] = format: cell-based
Procedure: as §1, §2

Pseudomonas aeruginosa [5] = format: cell-based
Procedure: as §1, §2

Escherichia coli [6] = format: cell-based
Procedure: as §1, §2

Candida albicans [7] = assay: Disk diffusion test (Kirby-Bauer): Candida albicans; format: cell-based; conditions: 10 μL sample, 37° C. for 16 hours
Procedure: (§3) In order to perform a disk diffusion test for the four kinds of bacteria, the following experiment was conducted.
(§4) After Escherichia coli, Staphylococcus aureus, Pseudomonas aeruginosa, and Candida albicans were cultured in the respective media, a certain amount of the cultured bacteria was spread on unhardened solid media, and then the media were hardened. On the surface of the hardened solid medium, 10 μL of antimicrobial peptide sample was placed, a dry 3M paper disk was put thereon, then incubation was performed at 37° C. for 16 hours, and the size of the zone of inhibition was observed.

Escherichia coli [8] = assay: SEM analysis of Escherichia coli treated with peptide; format: cell-based; conditions: Escherichia coli treated for 30 minutes
Procedure: In order to closely examine the effect of the antimicrobial peptide of the present disclosure on microorganisms, Escherichia coli was treated with the peptide of SEQ ID NO: 6 for 30 minutes, and then the antimicrobial effect was analyzed using a scanning electron microscope (SEM).
Specifically, for SEM analysis, Escherichia coli was cultured using LB medium, then a certain amount of cultured Escherichia coli was taken and treated with the peptide of SEQ ID NO: 6 for 30 minutes, washed with PBS 2 times, and then fixed with a primary fixative of 2% paraformaldehyde in PBS for 2 hours. After fixation, washing with PBS was performed 2 times, dehydration with 30%, 50%, 70%, 80%, 95%, and 100% ethanol was performed for 10 minutes in each step (the last treatment with 100% ethanol was repeated 3 times), and the pellets were lyophilized. After platinum coating using a coater, analysis by SEM was conducted.

Escherichia coli [9] = assay: Disk diffusion test (Kirby-Bauer): Escherichia coli; format: cell-based; conditions: 10 μL sample, 37° C. for 16 hours
Procedure: as §3, §4

Staphylococcus aureus [10] = assay: Disk diffusion test (Kirby-Bauer): Staphylococcus aureus; format: cell-based; conditions: 10 μL sample, 37° C. for 16 hours
Procedure: as §3, §4

Pseudomonas aeruginosa [11] = assay: Disk diffusion test (Kirby-Bauer): Pseudomonas aeruginosa; format: cell-based; conditions: 10 μL sample, 37° C. for 16 hours
Procedure: as §3, §4

[12] = Escherichia coli, 24 hours at 37° C., absorbance 600 nm
[13] = Escherichia coli, 24 hours at 37° C., absorbance 600 nm, read-out: IC50
[14] = Candida albicans, YM medium, 24 hours at 37° C., read-out: IC50
[15] = Staphylococcus aureus, LB medium, 24 hours at 37° C., read-out: IC50
[16] = Pseudomonas aeruginosa, LB medium, 24 hours at 37° C., read-out: IC50
[17] = Escherichia coli, LB medium, 24 hours at 37° C., read-out: IC50

Row | Molecule | toxicity level to human keratinocytes (in words) [1] | MIC (Escherichia coli [2]; [12]) [µM] | IC50 (Escherichia coli [2]; [13]) [µM] | antimicrobial activity against Escherichia coli (in words) (Escherichia coli [2]) | IC50 (Candida albicans [3]; [14]) [µM] | IC50 (Staphylococcus aureus [4]; [15]) [µM] | IC50 (Pseudomonas aeruginosa [5]; [16]) [µM] | IC50 (Escherichia coli [6]; [17]) [µM] | IC50 (Escherichia coli [2]; 24 h) [µM] | MIC (Escherichia coli [2]; 24 h) [µM] | IC50 (Candida albicans [3]; 24 h) [µM] | IC50 (Staphylococcus aureus [4]; 24 h) [µM] | IC50 (Pseudomonas aeruginosa [5]; 24 h) [µM] | IC50 (Escherichia coli [6]; 24 h) [µM] | zone of inhibition (Candida albicans [7]) | effect on cell membrane observed by SEM (Escherichia coli [8]) | zone of inhibition (Escherichia coli [9]) | zone of inhibition (Staphylococcus aureus [10]) | zone of inhibition (Pseudomonas aeruginosa [11])
1 | RRLFRRILRYLR [SEQ ID NO: 2, H2N-[Arg-Arg-Leu-Phe-Arg-Arg-Ile-Leu-Arg-Tyr-Leu-Arg]-CO2H] | maintained at a level similar to that of SEQ. ID NO: 1 peptide; also recorded: greatly decreased compared to that of the peptides of SEQ ID NO: 3 and SEQ ID NO: 4 | 62.5 | 14 | remarkably increased compared to that of the peptide of SEQ ID NO: 1; also recorded: remarkably excellent compared to that of the peptides of SEQ ID NO: 3 and SEQ ID NO: 4 | 13 | 17 | 10 | 14 | – | – | – | – | – | – | – | – | – | – | –
2 | RKLFRKILKYLR [SEQ ID NO: 8, H2N-[Arg-Lys-Leu-Phe-Arg-Lys-Ile-Leu-Lys-Tyr-Leu-Arg]-CO2H] | – | 31.25 | 10 | most remarkably excellent | 8 | 10 | 5 | 10 | – | – | – | – | – | – | – | – | – | – | –
3 | CC[C@H](C)[C@H](NC(=O)[C@H](CCCCN)NC(=O)[C@H](CCCCN)NC(=O)[C@H](Cc1ccccc1)NC(=O)[C@H](CC(C)C)NC(=O)[C@H](CCCCN)NC(=O)[C@@H](N)CCCCN)C(=O)N[C@@H](CC(C)C)C(=O)N[C@@H](CCCCN)C(=O)N[C@@H](Cc1ccc(O)cc1)C(=O)N[C@@H](CC(C)C)C(=O)N[C@@H](CCCCN)C(=O)O [SEQ ID NO: 1, H2N-[Lys-Lys-Leu-Phe-Lys-Lys-Ile-Leu-Lys-Tyr-Leu-Lys]-CO2H] | maintained at a similar level to that of the known peptide | – | – | remarkably increased compared to that of the known peptide | 19 | 22 | 12 | 21 | – | – | – | – | – | – | – | – | – | – | –
4 | H-KRLFKRILRYLK-OH [SEQ ID NO: 7, H2N-[Lys-Arg-Leu-Phe-Lys-Arg-Ile-Leu-Arg-Tyr-Leu-Lys]-CO2H] | – | – | – | – | – | – | – | – | 11 | 62.5 | 10 | 13 | 8 | 11 | – | – | – | – | –
5 | KRLFRKILKYLR [SEQ ID NO: 6, H2N-[Lys-Arg-Leu-Phe-Arg-Lys-Ile-Leu-Lys-Tyr-Leu-Arg]-CO2H] | – | 31.25 | 9 | most remarkably excellent | 6 | 10 | 4 | 9 | – | – | – | – | – | – | transparent zones of inhibition with clear borders | entire cell membrane of Escherichia coli is destroyed to form large pores and elution of cell contents of the bacteria is observed | transparent zones of inhibition with clear borders | transparent zones of inhibition with clear borders | transparent zones of inhibition with clear borders
6 | RKLFKRILRYLK [SEQ ID NO: 5, H2N-[Arg-Lys-Leu-Phe-Lys-Arg-Ile-Leu-Arg-Tyr-Leu-Lys]-CO2H] | – | 62.5 | 12 | – | 11 | 15 | 9 | 12 | – | – | – | – | – | – | – | – | – | – | –
